Consider 2 compounds from patent publication US11426426B2, “Pharmaceutical composition for preventing or treating inflammatory diseases, containing nitrogen monoxide-sensitive acrylamide-based polymer” (POSTECH ACADEMY-INDUSTRY FOUNDATION, priority 2018, dated 2022).

One data set concerns red blood cells. The data set can be described thus: Evaluation of hemolysis. Type of data set: cell-based, mice. Particulars: 1 mg/mL in DPBS; 1×10^8 mouse red blood cells; 4 hours at 37° C.; absorbance at 450 nm. The protocol:
In order to check whether the nitric oxide-sensitive hydrogel has in vivo stability after being administered into the body, first, red blood cells were separated from the blood collected from mice. A DPBS solution including 1 mg/mL Example 1, the nitric oxide-cleavable crosslinker (NOCCL), and acrylamide was introduced into 1×10^8 cells of the red blood cells thus prepared, and the mixture was thoroughly mixed. This solution was left to stand for 4 hours in a constant temperature tank at 37° C. Next, the solution was centrifuged, subsequently the supernatant was transferred onto a 96-well plate, and the absorbance at 450 nm was measured to calculate the degree of hemolysis.

A short description of data set [1]: Nitric oxide scavenging ability (Griess reagent). The procedure: In order to check whether the nitric oxide-cleavable crosslinker (NOCCL) produced according to Production Example 1 can actually scavenge nitric oxide, Griess reagent was used, and 100 μM nitric oxide and 10 μM nitric oxide were treated to check the scavenging ability of the nitric oxide-cleavable crosslinker. At this time, N,N′-methylene bisacrylamide (BIS) was used as a comparative group, and water was used as a control group.
In general terms: Griess reagent forms a coloured azo dye with nitrite.

Consider `C=CC(N)=O` [acrylamide], for which, in the data set with red blood cells, the degree of hemolysis result is reported as “up to 99%”.

In the case of `C=CC(=O)Nc1ccc(NC(=O)C=C)c(N)c1` [nitric oxide-cleavable crosslinker, N,N-(2-amino-1,4-phenylene) diacrylamide], in the data set on red blood cells, the degree of hemolysis result is listed as “did not cause hemolysis”. Moreover, the “nitric oxide scavenged as compared to the comparative group” value in data set [1] (100 μM and 10 μM nitric oxide, comparative group BIS) is given as no less than 30%. Besides, the “nitric oxide scavenging ability” value in data set [1] (high concentration (100 μM) of nitric oxide) was no less than 50%.
